Data reported in PMC8305076, “Comprehensive Evaluation of Biological Effects of Pentathiepins on Various Human Cancer Cell Lines and Insights into Their Mode of Action” (International Journal of Molecular Sciences, 2021).

What was measured:
Type in all cases: cell-based, human
[1] = tested on: caspase-3 and -7 in HAP-1; test: luminescent caspase activity assay; details: pentathiepins IC90, doxorubicin 0.5 µM, 24 h
Description: To further corroborate this mode of cell death, we performed a luminescent caspase assay by measuring caspase-3 (cas-3) and caspase-7 (cas-7) activities (Figure 16). Both are executioner caspases that are present as zymogens (35 kDa) and become active after being cleaved (fragment sizes 17 and 19 kDa) by initiator caspases. Activated cas-3 and -7 in turn have several other substrates, including PARP1. In this assay, a precursor with a caspase-specific target sequence was converted into its luminescent form by active caspase-3 or -7, thereby emitting light that can be quantified.
To study the activation of the effector caspases -3 and -7, we performed a luminescence-based assay according to the manufacturer’s instructions (Caspase-Glo, Promega, Walldorf, Germany). Briefly, 5000 cells were seeded in 0.1 mL per well of a 96-well plate and allowed to adhere overnight. […] Afterwards, the standard protocol was followed, including a 30 min incubation time before measurement of luminescent signals by using the Spectramax i3x (Molecular Devices, Sunnyvale, CA, USA). After subtraction of the background luminescence the positive control and treatment conditions were related to the negative control.

[2] = tested on: DanG; test: DCFDA flow cytometric ROS assay, acute; details: 25 µM, 15 min
Experimental: (§1) According to the hypothesized mechanism of action (see Figure 3), pentathiepins can create oxidative stress via generation of reactive sulfur precursors. We have previously reported that a representative pentathiepin can increase the intracellular levels of ROS in two cancer cell lines. This effect was thus further evaluated with the new compounds in seven cell lines (Figure 8). The cells were incubated for 15 min with 25.0 µM pentathiepin and subsequently analyzed by using the intracellular ROS sensor 2′,7′-dichlorodihydrofluorescein diacetate (DCFDA) by flow cytometry.
(§2) In order to quantify intracellular ROS, we performed a flow cytometric assay based on the ROS-sensor 2′,7′-dichlorofluorescein diacetate (DCFDA). For acute effects of pentathiepins on intracellular ROS levels, the cells were stained with DCFDA first and subsequently incubated with 25 µM of compound for 10 min. […] Per condition, 250,000 cells were seeded in 2 mL of medium per well of a 6-well plate and allowed to adhere overnight. For measurement of acute ROS, the cells were stained with 1 mL of a 20 µM DCFDA-PBS solution for 30 min under standard incubation conditions. Afterwards, the solution was discarded, and the monolayer washed twice with 1 mL of PBS before 3 mL of medium containing 25 µM of pentathiepin was added for 10 min at 37 °C. After removing the solution and washing again with PBS, the cells were detached by using 0.5 mL of a diluted trypsin/EDTA-PBS solution (25%) and harvested with 1 mL of culture medium by carefully rinsing the wells. The cell suspension was transferred to 1.5 mL tubes, centrifuged for 5 min at 500× g, and washed with 1 mL of PBS. After removing the supernatant, each pellet was resuspended in 0.5 mL of PBS for measurement via the MACSquant Analyzer 10 at λEx/Em = 488/530 nm. Relative ROS levels resulting from treatment with pentathiepin were calculated by relating the fluorescence intensity of treated samples to the negative control. For the experiments covering periods of 24 and 48 h, the cells were incubated with the compounds first and stained with DCFDA afterwards. To assess the influence of additional GSH, we included 3 or 30 µM GSH to the medium containing 25 µM of pentathiepin, and the protocol was followed as described.

[3] = tested on: PATU-8902; test: DCFDA flow cytometric ROS assay, acute; details: 25 µM, 15 min
Experimental: as §1, §2

[4] = tested on: PARP1 in HAP-1; test: Western blot of cleaved PARP1; details: pentathiepins IC90, doxorubicin 0.5 µM, 24 h
Experimental: (§3) In addition to general flow cytometric and microscopic analyses, Western blotting was performed to detect the apoptosis-relevant protein PARP1 (poly(ADP-ribose) polymerase 1) and its cleavage fragment (Figure 17 and Figures S29–S34). Full-length PARP1 (116 kDa) is involved in DNA repair, and a cleavage by caspases (fragment sizes 24 and 89 kDa) caused by caspase-3 and -7 is a hallmark of late apoptosis.
(§4) All detected specific bands were normalized to the total protein load per lane by the TGX stain-free gel system from Bio-Rad.
(§5) All Western blot analyses were performed with reagents, material, and devices purchased from Bio-Rad (Feldkirchen, Germany) if not stated otherwise. To obtain protein lysates, we seeded cells and treated them as described for the other methods. […] Cells were harvested by trypsinization and centrifugation for 5 min at 500× g. After a washing step with PBS, the cell pellet was resuspended in lysis buffer (Tris 50 mM (pH 7.4), 100 mM NaCl, 100 mM NaF, 5 mM EDTA, 0.2 mM Na3VO4, 0.1% Triton-X, and 1% protease inhibitor cocktail added immediately before use). Lysis was supported by incubating the samples for 10 min in an ultrasonic bath before centrifuging for 10 min at 18,000 × g and 4 °C. Protein quantification was performed via the Bradford method using ROTI®nanoquant reagent (Carl Roth GmbH, Karlsruhe, Germany) and bovine serum albumin as calibration standard. For electrophoretic separation, 15–40 µg of protein was loaded per well of a polyacrylamide gel (Mini- or Midi-Protean® TGX stain-free gel, Bio-Rad, Feldkirchen, Germany), and subsequent blotting was performed with Trans-Blot®Turbo™TransferPack Mini or Midi PVDF membranes from Bio-Rad (Feldkirchen, Germany). The membranes were blocked with a 10% non-fat milk powder solution in Tris-buffered saline (TBS; 2.42 g/L Tris, 8.48 g/L NaCl in water) plus 0.5% Tween-20 (TBST) for 1 h at RT. Incubation with primary antibodies took place over night at 4 °C in a 1:1000 dilution in TBST containing BSA (1%). The secondary antibodies conjugated to horse-radish peroxidase were diluted 1:10,000 in TBST and 1% BSA, and incubated for 4 h at RT. A detection step followed, applying Clarity™Western ECL substrate with subsequent imaging via the INTAS Advanced Fluorescence Imager. Between all incubation steps, the blots were washed three times for 10 min with TBST. The bands were quantified with the ImageLab software and normalized using the total protein quantification of the TGX stain-free gel system from Bio-Rad.

[5] = tested on: PARP1 in HAP-1.KO.GPx1; test: Western blot of cleaved PARP1; details: pentathiepins IC90, doxorubicin 0.5 µM, 24 h
Experimental: as §3, §4, §5

[6] = tested on: PATU-8902; test: cell cycle analysis (PI staining); details: IC90, 24 and 48 h (Figure 19b)
Experimental: The potent cytotoxicity and the potential to inhibit the proliferation of cancer cells accompanied by DNA damage effects raised the question as to whether cell cycle progression might be affected as a result of treatment with pentathiepins.
Cells were harvested by trypsinization, collected in 1.5 mL tubes, and washed twice with PBS by centrifuging for 5 min at 500× g and discarding the supernatant after every step. For fixation, 500 µL of ice-cold ethanol (70%) was added dropwise under vortexing with a subsequent incubation on ice for 30 min. Then, the cells were centrifuged for 10 min at 4000 rpm and 4 °C, the supernatant was removed, and the cells were resuspended in 500 µL of PBS containing 25 µg/mL of PI and 100 µg/mL of RNase. The staining solution was incubated for 30 min, and the cell suspension was measured at λEx/Em = 488/655–730 nm using a MACSquant Analyzer 10 (Miltenyi Biotec, Teterow, Germany).

Row | caspase-3 and -7 activity vs solvent control [1] | Compound | intracellular ROS levels [2] | intracellular ROS levels [3] | cleaved PARP1 [4] | cleaved PARP1 [5] | increase of S-phase cells [6]
1 | statistically significant results | CCOc1c2c(c3ccc(C(=O)N4CCCCC4)cn13)SSSSS2 [Compound 2, (6-Ethoxy-[1,2,3,4,5]pentathiepino[6,7-a]indolizin-9-yl)(piperidinyl)methanone] | high levels of intracellular ROS were detected | high levels of intracellular ROS were detected | – | – | –
2 | – | CCOc1c2c(c3ccc(C(=O)N4CCOCC4)cn13)SSSSS2 [Compound 3, (6-Ethoxy-[1,2,3,4,5]pentathiepino[6,7-a]indolizin-9-yl)(morpholino)methanone] | high levels of intracellular ROS were detected | high levels of intracellular ROS were detected | trends for increased levels | trends for increased levels | up to 14%
3 | statistically significant results | CCOc1c2c(c3ccc(C(=O)N(CC)CC)cn13)SSSSS2 [Compound 4, 6-Ethoxy-N,N’-diethyl-[1,2,3,4,5]pentathiepino[6,7-a]indolizine-9-carboxamide] | high levels of intracellular ROS were detected | high levels of intracellular ROS were detected | – | – | up to 14%
4 | – | CCOc1c2c(c3ccc(C(=O)N4CCN(C(=O)c5ccc(F)cc5)CC4)cn13)SSSSS2 [Compound 5, (6-Ethoxy-[1,2,3,4,5]pentathiepino[6,7-a]indolizin-9-yl)(4-(4-fluorobenzoyl)piperazinyl)methanone] | high levels of intracellular ROS were detected | high levels of intracellular ROS were detected | trends for increased levels | trends for increased levels | –
5 | statistically significant results | CCOc1c2c(c3ccc(C(=O)N4CCN(S(=O)(=O)c5ccc(C)cc5)CC4)cn13)SSSSS2 [Compound 6, (6-Ethoxy-[1,2,3,4,5]pentathiepino[6,7-a]indolizin-9-yl)(4-tosylpiperazinyl)methanone] | – | – | relevant and significant quantities of cleaved PARP1 | relevant and significant quantities of cleaved PARP1 | –
